Laboratory results as given in patent publication US20230339939A1 (Bayer Aktiengesellschaft, priority 2020, published 2023).

Experiments:
CSNK1D = CSNK1D (Homo sapiens (Human), UniProt P48730); assay: CSNK1D Assay (ADP-Glo, 1 μM ATP); assay type: biochemical; conditions: median, read-out: CSNK1D IC50 [mol/l] (median)
Experimental: CSNK1D-inhibitory activity of compounds of the present invention in presence of 1 μM adenosine-tri-phosphate (ATP) was quantified employing the CSNK1 D assay as described in the following paragraphs. In essence, the enzyme activity is measured by quantification of the adenosine-di-phosphate (ADP), which is generated as a co-product of the enzyme reaction, via the “ADP-Glo™ Kinase Assay” kit from the company Promega. This detection system works as follows: In a first step the ATP not consumed in the kinase reaction is quantitatively converted to cAMP employing an adenylate cyclase (“ADP-Glo-reagent”), then the adenylate cyclase is stopped and the ADP generated in the kinase reaction converted to ATP which generates in a luciferase-based reaction a glow-luminescence signal (“Kinase Detection Reagent”).
Recombinant fusion protein of N-terminal Glutathion-S-Transferase (GST) and full-length human CSNK1D, expressed by baculovirus infected insect cells and purified via Glutathion affinity chromatography, was purchased from Life Technologies (product no. PV3665) and used as enzyme. As substrate for the kinase reaction the biotinylated peptide Btn-Ahx-[…] (C-terminus in amide form) was used which can be purchased e.g. from the company Biosyntan (Berlin-Buch, Germany).
For the assay 50 nl of a 100 fold concentrated solution of the test compound in DMSO was pipetted into a white 1536-well microtiter plate (Greiner Bio-One, Frickenhausen, Germany), 2 μL of a solution of CSNK1D in aqueous assay buffer [50 mM HEPES pH 7.5, 10% (v/v) glycerol, 10 mM MgCl2, 50 mM NaCl, 1 mM dithiothreitol, 0.01% (w/v) bovine serum albumin, 0.01% (v/v) Triton X-100] were added and the mixture was incubated for 15 min at 22° C. to allow pre-binding of the test compounds to the enzyme before the start of the kinase reaction. […] The concentration of CSNK1D was adjusted depending of the activity of the enzyme lot and was chosen appropriate to have the assay in the linear range, a typical concentration is about 0.5 ng/μL. The reaction was stopped by the addition of 2.5 μL of “ADP-Glo-reagent” (1:1.5 fold diluted with water) and the resulting mixture was incubated at 22° C. for 1 h to convert the ATP not consumed in the kinase reaction completely […]. Subsequently 2.5 μL of the “kinase detection reagent” (1.2 fold more concentrated than recommended by the producer) were added, the resulting mixture was incubated at 22° C. for 1 h and then the luminescence measured with a suitable measurement instrument (e.g. Viewlux™ from Perkin-Elmer). The amount of emitted light was taken as a measure for the amount of ADP generated and thereby for the activity of the CSNK1D.

CSNK1A1 = CSNK1A1 (Homo sapiens (Human), UniProt P48729); assay: CSNK1A1 Assay 2 (ADP-Glo, 1 μM ATP, substrate biotin-Ahx-KRRRAL-pS-VASLPGL); assay type: biochemical; conditions: median, read-out: CSNK1A1 Assay 2 IC50 [mol/l] (median)
CSNK1A1, sequence (P48729 whole entry): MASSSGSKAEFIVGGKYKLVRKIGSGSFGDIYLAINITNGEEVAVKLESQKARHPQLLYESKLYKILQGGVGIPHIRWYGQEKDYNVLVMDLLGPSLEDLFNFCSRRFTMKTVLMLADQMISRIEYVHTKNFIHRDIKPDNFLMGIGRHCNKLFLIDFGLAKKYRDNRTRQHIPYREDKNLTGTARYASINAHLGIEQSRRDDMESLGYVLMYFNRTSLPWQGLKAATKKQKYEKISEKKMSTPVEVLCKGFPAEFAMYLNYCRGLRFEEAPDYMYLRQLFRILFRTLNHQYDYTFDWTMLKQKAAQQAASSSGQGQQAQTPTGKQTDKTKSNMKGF
Experimental: CSNK1A1-inhibitory activity of compounds of the present invention in presence of 1 μM adenosine-tri-phosphate (ATP) was quantified employing the CSNK1A1 assay as described in the following paragraphs. In essence, the enzyme activity is measured by quantification of the adenosine-di-phosphate (ADP), which is generated as a co-product of the enzyme reaction, via the “ADP-Glo™ Kinase Assay” kit from the company Promega. This detection system works as follows: In a first step the ATP not consumed in the kinase reaction is quantitatively converted to cAMP employing an adenylate cyclase (“ADP-Glo-reagent”), then the adenylate cyclase is stopped and the ADP generated in the kinase reaction converted to ATP which generates in a luciferase-based reaction a glow-luminescence signal (“Kinase Detection Reagent”).
Recombinant fusion protein of N-terminal Glutathion-S-Transferase (GST) and full-length human CSNK1A1, expressed by baculovirus infected insect cells and purified via Glutathion affinity chromatography, was purchased from Life Technologies (product no. PV4174) and used as enzyme. As substrate for the kinase reaction the biotinylated peptide biotin-Ahx-KRRRAL-pS-VASLPGL (C-terminus in amide form) was used which can be purchased e.g. from the company Biosyntan (Berlin-Buch, Germany).
For the assay 50 nl of a 100 fold concentrated solution of the test compound in DMSO was pipetted into a white 1536-well microtiter plate (Greiner Bio-One, Frickenhausen, Germany), 2 μL of a solution of CSNK1A1 in aqueous assay buffer [50 mM HEPES pH 7.5, 10% (v/v) glycerol, 10 mM MgCl2, 50 mM NaCl, 1 mM dithiothreitol, 0.01% (w/v) bovine serum albumin, 0.01% (v/v) Triton X-100] were added and the mixture was incubated for 15 min at 22° C. to allow pre-binding of the test compounds to the enzyme before the start of the kinase reaction. […] The concentration of CSNK1A1 was adjusted depending of the activity of the enzyme lot and was chosen appropriate to have the assay in the linear range, a typical concentrations are about 0.0375 ng/μL. The reaction was stopped by the addition of 2.5 μL of “ADP-Glo-reagent” (1:1.5 fold diluted with water) and the resulting mixture was incubated at 22° C. for 1 h to convert the ATP not consumed in the kinase reaction completely […]. Subsequently 2.5 μL of the “kinase detection reagent” (1.2 fold more concentrated than recommended by the producer) were added, the resulting mixture was incubated at 22° C. for 1 h and then the luminescence measured with a suitable measurement instrument (e.g. Viewlux™ from Perkin-Elmer). The amount of emitted light was taken as a measure for the amount of ADP generated and thereby for the activity of the CSNK1A1.

CSNK1D, sequence (P48730 whole entry): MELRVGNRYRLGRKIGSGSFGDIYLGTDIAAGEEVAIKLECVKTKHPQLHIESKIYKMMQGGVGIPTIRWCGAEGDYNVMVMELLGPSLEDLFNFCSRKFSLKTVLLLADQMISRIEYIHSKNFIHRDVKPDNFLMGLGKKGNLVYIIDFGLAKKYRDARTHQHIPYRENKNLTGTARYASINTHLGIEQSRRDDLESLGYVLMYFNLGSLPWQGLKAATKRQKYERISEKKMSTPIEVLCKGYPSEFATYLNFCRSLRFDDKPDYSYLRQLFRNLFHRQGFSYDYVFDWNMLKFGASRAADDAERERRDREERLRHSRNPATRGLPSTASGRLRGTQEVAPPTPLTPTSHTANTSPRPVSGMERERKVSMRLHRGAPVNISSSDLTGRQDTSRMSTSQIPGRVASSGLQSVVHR

SMILES | IC50 (CSNK1D) [nM] | IC50 (CSNK1A1) [nM]
CC(C(=O)Nc1cc(-c2[nH]c3cccnc3c2-c2ccccc2)ccn1)c1ccc(F)cc1 (racemic) [Example 11, 2-(4-fluorophenyl)-N-[4-(3-phenyl-1H-pyrrolo[3,2-b]pyridin-2-yl)pyridin-2-yl]propanamide] | 7.02 | 6.11
O=C(Cc1ccc(F)cc1)Nc1cc(-c2[nH]c3cccnc3c2-c2ccccc2)ccn1 [Example 14, 2-(4-fluorophenyl)-N-[4-(3-phenyl-1H-pyrrolo[3,2-b]pyridin-2-yl)pyridin-2-yl]acetamide] | 2.64 | 1.04
O=C(Cc1ccc(F)cc1)Nc1cc(-c2[nH]c3cccnc3c2-c2ccccn2)ccn1 [Example 5, 2-(4-fluorophenyl)-N-{4-[3-(pyridin-2-yl)-1H-pyrrolo[3,2-b]pyridin-2-yl]pyridin-2-yl}acetamide] | 2.68 | 1.06
O=C(Cc1ccc(F)cc1)Nc1cc(-c2[nH]c3ccc(F)nc3c2-c2ccccn2)ccn1 [Example 4, 2-(4-fluorophenyl)-N-{4-[5-fluoro-3-(pyridin-2-yl)-1H-pyrrolo[3,2-b]pyridin-2-yl]pyridin-2-yl}acetamide] | 2.33 | 0.739
CC(C(=O)Nc1cc(-c2[nH]c3cccnc3c2-c2ccccn2)ccn1)c1ccc(F)cc1 (racemic) [Example 6, 2-(4-fluorophenyl)-N-{4-[3-(pyridin-2-yl)-1H-pyrrolo[3,2-b]pyridin-2-yl]pyridin-2-yl}propanamide] | 3.37 | 1.73
O=C(Cc1ccc(F)cc1)Nc1cc(-c2[nH]c3c(Cl)ccnc3c2-c2ccccn2)ccn1 [Example 22, N-{4-[7-chloro-3-(pyridin-2-yl)-1H-pyrrolo[3,2-b]pyridin-2-yl]pyridin-2-yl}-2-(4-fluorophenyl)acetamide] | 5.84 | 1.6
CC(C(=O)Nc1cc(-c2[nH]c3ccc(F)nc3c2-c2ccccn2)ccn1)c1ccc(F)cc1 (single isomer, unassigned; (-)) [Example 2, (−)-2-(4-fluorophenyl)-N-{4-[5-fluoro-3-(pyridin-2-yl)-1H-pyrrolo[3,2-b]pyridin-2-yl]pyridin-2-yl}propanamide] | 32.2 | 10.9
COc1ccc2[nH]c(-c3ccnc(NC(=O)Cc4ccc(F)cc4)c3)c(-c3ccccn3)c2n1 [Example 32, 2-(4-fluorophenyl)-N-{4-[5-methoxy-3-(pyridin-2-yl)-1H-pyrrolo[3,2-b]pyridin-2-yl]pyridin-2-yl}acetamide] | 7.52 | 2.5
O=C(Cc1ccc(F)cc1)Nc1cc(-c2[nH]c3cc(F)cnc3c2-c2ccccc2)ccn1 [Example 10, 2-(4-fluorophenyl)-N-[4-(6-fluoro-3-phenyl-1H-pyrrolo[3,2-b]pyridin-2-yl)pyridin-2-yl]acetamide] | 4.27 | 3.83
CC(C(=O)Nc1cc(-c2[nH]c3cccnc3c2-c2ccccn2)ccn1)c1ccc(F)cc1 (single isomer, unassigned; (+)) [Example 7, (+)-2-(4-fluorophenyl)-N-{4-[3-(pyridin-2-yl)-1H-pyrrolo[3,2-b]pyridin-2-yl]pyridin-2-yl}propanamide] | 2.1 | 0.949
Cc1cc(CC(=O)Nc2cc(-c3[nH]c4cccnc4c3-c3ccccn3)ccn2)ccc1F [Example 41, 2-(4-fluoro-3-methylphenyl)-N-{4-[3-(pyridin-2-yl)-1H-pyrrolo[3,2-b]pyridin-2-yl]pyridin-2-yl}acetamide] | 12.1 | 4.03
CC(C)C(C(=O)Nc1cc(-c2[nH]c3ccc(F)nc3c2-c2ccccn2)ccn1)c1ccc(F)cc1 (single isomer, unassigned; (+)) [Example 26, (+)-2-(4-fluorophenyl)-N-{4-[5-fluoro-3-(pyridin-2-yl)-1H-pyrrolo[3,2-b]pyridin-2-yl]pyridin-2-yl}-3-methylbutanamide] | 7.62 | 3.5
CCc1ccnc2c(-c3ccccn3)c(-c3ccnc(NC(=O)Cc4ccc(F)cc4)c3)[nH]c12 [Example 34, N-{4-[7-ethyl-3-(pyridin-2-yl)-1H-pyrrolo[3,2-b]pyridin-2-yl]pyridin-2-yl}-2-(4-fluorophenyl)acetamide] | 3.84 | 3.08
COCC(C(=O)Nc1cc(-c2[nH]c3cc(F)cnc3c2-c2ccccn2)ccn1)c1ccc(F)cc1 (racemic) [Example 45, (2RS)-2-(4-fluorophenyl)-N-[4-[6-fluoro-3-(2-pyridyl)-1H-pyrrolo[3,2-b]pyridin-2-yl]-2-pyridyl]-3-methoxy-propanamide] | 12 | 4.83
CC(C(=O)Nc1cc(-c2[nH]c3ccc(F)nc3c2-c2ccccn2)ccn1)c1ccc(F)cc1 (racemic) [Example 1, 2-(4-fluorophenyl)-N-{4-[5-fluoro-3-(pyridin-2-yl)-1H-pyrrolo[3,2-b]pyridin-2-yl]pyridin-2-yl}propanamide] | 4.58 | 1.66
CC(C)C(C(=O)Nc1cc(-c2[nH]c3ccc(F)nc3c2-c2ccccn2)ccn1)c1ccc(F)cc1 (single isomer, unassigned; (-)) [Example 25, (−)-2-(4-fluorophenyl)-N-{4-[5-fluoro-3-(pyridin-2-yl)-1H-pyrrolo[3,2-b]pyridin-2-yl]pyridin-2-yl}-3-methylbutanamide] | 56.3 | 23.9
O=C(Cc1ccc(F)cc1)Nc1cc(-c2[nH]c3ccnnc3c2-c2ccccn2)ccn1 [Example 21, 2-(4-fluorophenyl)-N-{4-[7-(pyridin-2-yl)-5H-pyrrolo[3,2-c]pyridazin-6-yl]pyridin-2-yl}acetamide] | 3.96 | 1.66
O=C(Cc1ccc(F)cc1)Nc1cc(-c2[nH]c3cccnc3c2-c2cccc(F)c2)ccn1 [Example 15, 2-(4-fluorophenyl)-N-{4-[3-(3-fluorophenyl)-1H-pyrrolo[3,2-b]pyridin-2-yl]pyridin-2-yl}acetamide] | 3.4 | 1.87
O=C(Cc1ccc(F)cc1)Nc1cc(-c2[nH]c3c(N4CCCC4=O)ccnc3c2-c2ccccn2)ccn1 [Example 40, 2-(4-fluorophenyl)-N-{4-[7-(2-oxopyrrolidin-1-yl)-3-(pyridin-2-yl)-1H-pyrrolo[3,2-b]pyridin-2-yl]pyridin-2-yl}acetamide] | 10.3 | 6.26
